Experimental data reported in US20120208873A1, “TEA POLYPHENOLS PRODUCTS FOR CEASING SMOKING AND TREATING AND/OR PREVENTING NICOTINE OR NICOTINE-DERIVED COMPOUNDS OR ESTROGEN INDUCED BREAST CANCER” (priority 2011, published 2012).
Read-outs that look alike come from different tables or passages of the source.

How the values were obtained:
[1] = tested on: α9-nAChR promoter; assay: α9-nAChR promoter luciferase activity assay in MCF-7 cells; type: cell-based, human; conditions: 24-h treatment, Nic 10 μM or E2 10 nM, vehicle = one-fold
Experimental: All α9-nAChR promoter—luciferase gene fusions were made in the pGL3-Basic vector (Promega, Madison, Wis., USA) by introducing the appropriate α9-nAChR promoter fragments into the polylinker upstream of the luciferase gene. These fragments were generated with restriction enzymes and cloned directly into pGL3-Basic or subcloned first in pBluescript and then transferred to pGL3-Basic. Deletion analysis of the most promoter-proximal region was performed by generating either appropriate restriction enzyme fragments or PCR fragments with suitable sense oligonucleotides and an antisense primer (5′-[…]-3′ (SEQ ID NO:1)) that anneals to the pGL3-Basic vector downstream of the site of transcription initiation.
MCF-7 cells were plated in 6-well plates. Cells were transiently cotransfected the next day with 1.5 μg of PGL3-Basic plasmid containing the full-length α9-nAChR promoter and 0.1 μg of the RLTK plasmid (Promega) using an MP-100 microporator (Digital Bio), according to the manufacturer's instructions. After incubation for 24 h, the medium was changed to culture medium containing 10% FBS or 0.1% FB S with or without Nic. Cells were lysed 24 h later with 1× Reporter Lysis Buffer (Promega) and stored frozen at −20° C. overnight. Luciferase activity was determined by testing 50 μL of the cell lysate and 50 μL of the Luciferase Assay Reagent (Promega) using a HIDEX Chameleon Microplate Reader. Relative luciferase units were normalized to renilla luciferase from the same cell lysates. Each luciferase assay experiment was performed three times.

[2] = tested on: α9-nAChR protein; assay: α9-nAChR protein levels by immunoblotting in MCF-7 cells; type: cell-based, human
Experimental: (§1) Human mammary gland epithelial adenocarcinomas (MCF7, MDA-MB-231, AU-565, MDA-MB-453, and BT-483) and normal human mammary gland epithelial fibrocystic cell lines (MCF-10A and HBL-100) were purchased from ATCC (American Type Culture Collection, Manassas, Va., USA). MCF-7, MDA-MB-231, and MDA-MB-453 cells were maintained in DMEM, whereas BT-483 cells were maintained in RPMI-1640. Cell growth, proliferation, and viability were determined by the 3-(4,5-dimethylthiazol-2-yl)-2,5-diphenyltetrazolium (MTT) assay. The formazan product was measured by absorbance at 540 nm.
(§2) To prepare protein samples, cells were washed once with ice-cold PBS and lysed on ice in cell lysis buffer (50 mM Tris-HCl, pH 8.0, 120 mM […], 0.5% Nonidet P-40, 100 mM sodium fluoride, and 200 μM sodium orthovanadate) containing protease inhibitors as described previously (Shih, Y. L., Liu, H. C., Chen, C. S., Hsu, C. H. et al., J. Agric. Food Chem. 2010, 58, 235-241). Protein (50 μg) from each sample was resolved by 12% SDS-polyacrylamide gel electrophoresis, transferred, and analyzed by Western blotting. Antibodies were purchased from the following vendors: anti-total AKT and protein A/G agarose beads were obtained from Santa Cruz Biotechnology (Santa Cruz, Calif., USA); anti-GAPDH and anti-α9-nAChR antibodies were from Abcam (Cambridge, UK); antiphospho AKT (Ser^473), anti-c-Jun, and anti-c-Fos were from Cell Signaling Technology (Beverly, Mass., USA). The secondary antibodies, alkaline phosphatase-coupled anti-mouse, and anti-rabbit IgG were purchased from Santa Cruz Biotechnology. The specific protein complexes were identified with the chromogenic substrates nitro blue tetrazolium, and 5-bromo-4-chloro-3-indolyl-phosphate from KPL (Gaithersburg, Md., USA). In each experiment, proteins were also probed with anti-GAPDH antibodies as a protein-loading control.

[3] = tested on: α9-nAChR mRNA; assay: α9-nAChR mRNA by RT-PCR / real-time PCR in MCF-7 cells; type: cell-based, human
Experimental: Total RNA was isolated from human cell lines using TRIzol (Invitrogen, Carlsbad, Calif., USA) according to the manufacturer's protocol. The α9-nAChR subunit-specific primers were synthesized by MB Mission BioTech (Taipei, Taiwan) as described in the previous reports (Chen, C. S., Lee, C. H., Hsieh, C. D., Ho, C. T. et al., Breast Cancer Res. Treat. 2010; Shih, Y. L., Liu, H. C., Chen, C. S., Hsu, C. H. et al., J. Agric. Food Chem. 2010, 58, 235-241). The PCR amplicons were analyzed on 1.2% agarose gels (Amresco, Solon, Ohio, USA) stained with ethidium bromide. The α9-nAChR mRNA intensity was measured and normalized to β-glucuronidase expression. Pictures of the bands were taken using an INFINITY-α digital imaging system (Vilber Lourmat, France), and band intensities were determined using PhotoCapt Version 11.01 software.

[4] = tested on: p-AKT (Ser^473); assay: phosphorylated AKT by immunoblotting in MCF-7 cells; type: cell-based, human; conditions: Nic 10 μM or E2 10 nM, 24 h
Experimental: as §2

[5] = tested on: AP-1; assay: ChIP assay of AP-1 binding to the α9-nAChR promoter in MCF-7 cells; type: cell-based, human; conditions: 24 h after Nic 10 μM
Experimental: Chromatin immunoprecipitation (ChIP) assays of cultured cells were performed as described previously (Chen, C. S., Lee, C. H., Hsieh, C. D., Ho, C. T. et al., Breast Cancer Res. Treat. 2010; Shih, Y. L., Liu, H. C., Chen, C. S., Hsu, C. H. et al., J. Agric. Food Chem. 2010, 58, 235-241). Briefly, after various regimens of Nic treatment, the cells were fixed with a final concentration of 1% formaldehyde directly added to the cell culture medium at 25° C. for 15 min. The crosslinking reaction was terminated with 0.125 M glycine for 5 min, and the cells were collected into a new Eppendorf tube. The cell lysate was sonicated three times with 10 s bursts to yield input DNA enriched for fragments around 1000 bp in size. A c-Jun (AP-1) antibody (Santa Cruz Biotechnology) was used for the immunoprecipitation reactions. Primers, which detect the a9-nAChR promoter regions, amplified a region from −960 to −1 for 32 cycles (forward: 5′-ATGCAATG CAAGCCTGAGCT-3′ (SEQ ID NO:2) and reverse: 5′-TATA-[…]-3′ (SEQ ID NO:3)). The PCR products were then separated and analyzed by agarose gel electrophoresis.

[6] = tested on: MCF-7 cells; assay: Cell proliferation (MTT assay) in MCF-7 cells; type: cell-based, human; conditions: Nic 10 μM
Experimental: as §1

[7] = tested on: MCF-10A cells; assay: Cell proliferation (MTT assay) in normal MCF-10A cells; type: cell-based, human; conditions: Nic 10 μM or EGCG 10-25 μM
Experimental: as §1

[8] = cited from earlier work
[9] = target: T1, α9-nAChR (Homo sapiens, UniProt Q9UGM1); conditions: MCF-7 cells, previous results, cited from earlier work
T1 construct: breast cancer cell proliferation induced by Nic could be mediated through endogenous α9-nAChR; endogenous in cells; host or cells: MCF-7 cell monolayers: wild type, scramble control (Sc) and α9-nAChR siRNA knockdown (Si) clones
T1 sequence (Q9UGM1 26-479 limits assumed): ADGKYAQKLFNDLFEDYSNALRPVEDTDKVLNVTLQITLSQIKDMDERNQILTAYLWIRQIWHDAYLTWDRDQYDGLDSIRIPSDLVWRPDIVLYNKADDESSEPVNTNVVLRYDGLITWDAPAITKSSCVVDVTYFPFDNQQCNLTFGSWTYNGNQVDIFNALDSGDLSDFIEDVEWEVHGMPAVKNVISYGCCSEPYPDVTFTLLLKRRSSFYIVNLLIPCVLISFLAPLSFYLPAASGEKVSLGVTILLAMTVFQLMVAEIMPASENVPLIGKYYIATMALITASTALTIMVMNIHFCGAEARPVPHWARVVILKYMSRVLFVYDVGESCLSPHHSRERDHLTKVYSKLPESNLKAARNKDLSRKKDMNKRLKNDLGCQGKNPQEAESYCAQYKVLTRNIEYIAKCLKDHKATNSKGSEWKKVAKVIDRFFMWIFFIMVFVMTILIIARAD

C[C@]12CC[C@@H]3c4ccc(O)cc4CC[C@H]3[C@@H]1CC[C@@H]2O [E2, estradiol]
induction of full-length α9-nAChR promoter luciferase activity [1]: 2.3 fold

O=c1cc(N2CCOCC2)oc2c(-c3ccccc3)cccc12 [LY294002]
Nic- and E2-induced upregulation of α9-nAChR protein after inhibitor pretreatment ([2]; MCF-7, 24 h pretreatment (LY294002 25 μM or EGCG 10 μM), then Nic 10 μM or E2 10 nM 24 h): not significantly inhibited

CN(CCCC(=O)c1cccnc1)N=O [NNK, 4-(methylnitrosamino)-1-(3-pyridyl)-1-butanone]
α9-nAChR protein level ([2]; MCF-7, Nic 0.1-10 μM, NNK 0.1-10 μM or E2 1-200 nM, 24 h, dose-dependent): significantly induced

CN1CCCC1c1cccnc1 (centres unmarked) [Nic, nicotine]
time after Nic treatment at which significant increase in α9-nAChR protein level was detected [2]: 6 h
α9-nAChR protein level [2]: significantly induced
time after Nic treatment at which significant increase in α9-nAChR mRNA level was detected ([3]; Nic 1 μM time course): 6 h
α9-nAChR mRNA expression (real-time PCR) ([3]; Nic 10 μM or E2 10 nM, 24 h): significantly upregulated
levels of p-AKT (Ser^473) [4]: significantly increased
induction of full-length α9-nAChR promoter luciferase activity [1]: 41.8 fold
binding of AP-1 to the α9-nAChR promoter [5]: increased binding
cellular proliferation rates in wild-type (C) and scrambled vector control (Sc) cells ([6]; MCF-7 (C) and (Sc)): significantly increased
breast cancer cell growth ([6]; MCF-7, 24 h): significantly stimulated
Nic-induced growth effects in α9-nAChR siRNA knockdown (Si) cells ([6]; MCF-7 α9-nAChR (Si)): almost completely attenuated
cell number in normal breast epithelial cells [7]: no changes
Nic concentration in gastric juices ([8]; in vivo): > 800 ng/mL
Nic concentration in plasma ([8]; in vivo): about 15 ng/mL
Nic concentration in saliva ([8]; in vivo): > 1300 ng/mL
saliva concentration of nicotine ([8]; in vivo): 1 mM
serum concentration of nicotine ([8]; in vivo): 10 to 100 µM
steady-state serum concentration of nicotine ([8]; in vivo): 200 nM
inhaled Nic absorbed systemically during smoking ([8]; studies using ^14C-Nic): 80-90%

CN1CCCC1c1cccnc1 [[^3H]-Nic, L-(−)-[N-methyl-^3H]-Nic]
Kd ([9]; read-out: dissociation constant (Kd) of [^3H]-Nic binding): 3 nM

[3H]CN1CCCC1c1cccnc1 [[^3H]-Nic, L-(−)-[N-methyl-^3H]-Nic]
time at which maximum binding activity is attained [9]: 60 min
